This is an account of results in paper PMC11643494, “Structure–Activity Relationship Studies in a Series of 2-Aryloxy-N-(pyrimidin-5-yl)acetamide Inhibitors of SLACK Potassium Channels” (Molecules, 2024).

The target in the experiment is T1, Human A934T SLACK (Homo sapiens, UniProt Q5JUK3, A915T).
T1 construct: host or cells: CHO-K1
T1 sequence (Q5JUK3 1-1235 isoform Q5JUK3-3 A934T): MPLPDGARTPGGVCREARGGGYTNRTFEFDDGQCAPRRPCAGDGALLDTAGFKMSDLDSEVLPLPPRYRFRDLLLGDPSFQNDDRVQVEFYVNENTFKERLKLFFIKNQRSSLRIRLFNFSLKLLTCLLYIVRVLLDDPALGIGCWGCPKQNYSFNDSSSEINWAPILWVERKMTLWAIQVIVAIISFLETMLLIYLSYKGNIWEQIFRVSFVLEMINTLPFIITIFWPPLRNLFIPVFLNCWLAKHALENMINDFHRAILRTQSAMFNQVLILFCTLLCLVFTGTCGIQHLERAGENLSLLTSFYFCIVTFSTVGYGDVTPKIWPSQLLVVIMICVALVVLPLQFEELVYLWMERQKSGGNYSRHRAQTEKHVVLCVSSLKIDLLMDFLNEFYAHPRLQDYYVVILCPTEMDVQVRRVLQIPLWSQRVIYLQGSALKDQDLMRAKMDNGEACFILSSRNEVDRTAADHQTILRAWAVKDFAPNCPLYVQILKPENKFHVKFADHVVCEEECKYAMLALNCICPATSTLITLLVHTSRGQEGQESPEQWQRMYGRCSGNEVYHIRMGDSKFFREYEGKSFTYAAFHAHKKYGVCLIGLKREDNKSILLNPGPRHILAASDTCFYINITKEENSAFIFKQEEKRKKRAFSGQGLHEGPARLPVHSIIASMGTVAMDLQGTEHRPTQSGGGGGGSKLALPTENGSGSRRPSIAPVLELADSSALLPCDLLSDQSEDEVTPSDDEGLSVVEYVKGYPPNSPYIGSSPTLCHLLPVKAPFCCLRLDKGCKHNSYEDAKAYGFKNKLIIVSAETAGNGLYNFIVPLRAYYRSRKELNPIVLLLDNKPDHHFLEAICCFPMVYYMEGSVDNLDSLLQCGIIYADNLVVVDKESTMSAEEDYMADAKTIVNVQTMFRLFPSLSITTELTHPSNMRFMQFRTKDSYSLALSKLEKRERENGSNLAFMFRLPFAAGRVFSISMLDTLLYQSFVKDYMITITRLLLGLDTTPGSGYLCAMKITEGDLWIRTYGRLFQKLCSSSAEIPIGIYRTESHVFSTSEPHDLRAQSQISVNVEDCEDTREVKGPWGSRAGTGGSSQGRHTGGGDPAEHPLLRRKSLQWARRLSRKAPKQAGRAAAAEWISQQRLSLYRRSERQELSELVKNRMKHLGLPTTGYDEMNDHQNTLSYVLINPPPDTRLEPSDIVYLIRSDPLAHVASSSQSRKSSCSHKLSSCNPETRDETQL
Nature of the experiment: Whole-cell APC in CHO-K1 cells stably expressing human A934T SLACK. It is filed as cell-based. Conditions: for IC50: APC, CHO-K1 cells; for Imax: maximum inhibition at 30 µM standardized to VU0606170 (set at 100%). From the text: Finally, we chose to screen the same two compounds versus mouse SLACK and two clinically relevant GOF SLACK mutants in APC assays utilizing CHO-K1 cells stably expressing these targets (Table 7). Screening versus the mouse homolog was deemed important for evaluating the potential of the series to ultimately lead to a useful in vivo tool via further optimization.
Stably transfected monoclonal HEK293 cell lines expressing SLICK, Maxi-K α1/β3, Maxi-K α1/β4, CaV3.2, GIRK 1/2, KV2.1, KV7.2, NaV1.7, and TASK-1 were generated as previously described. Stably transfected monoclonal HEK293 cell lines expressing hERG were generated as previously described. CHO-K1 cells expressing human SLACK and disease-associated human SLACK mutations, G288S and A934T, were generated by transfecting a PiggyBac TRE mammalian expression vector (VectorBuilder, Chicago, IL, USA) containing KCNT1. FuGENE 6 (Promega, Madison, WI, USA) transfection reagent and protocol, together with Opti-MEM (Thermo Fisher Scientific, Waltham, MA, USA), were utilized according to the manufacturer’s instructions.
Automated patch clamp recording was performed with a SyncroPatch 768 PE system (Nanion, Munich, Germany) as previously described. Whole-cell recordings were performed at room temperature. Cells were harvested by first washing with PBS without Mg^2+ or Ca^2+ (Gibco, Billings, MT, USA) to remove cell culture medium, followed by dissociation with TryPLE (Gibco, Billings, MT, USA). Cells were then resuspended and diluted to 200,000 cells/mL in external solution. External solution contained 105 mM NaCl, 4 mM KCl, 1 mM MgCl2, 5 mM CaCl2, 10 mM HEPES, 40 mM N-Methyl-D-glucamine chloride, titrated to pH 7.4 with NaOH and osmolarity of 300 mOsm/kg; internal solution contained 70 mM NaCl, 70 mM KF, 10 mM KCl, 5 mM EGTA, 5mM HEPES, titrated to a pH 7.2 with KOH and osmolarity of 295 mOsm/kg.
The APC protocol was set as following: Cells were held at […] −80 mV for 100 ms, then a ramp protocol was performed from −100 mV to 80 mV at 0.4 mV/ms, hold the cell at −80 mV for another 100 ms, then steps were performed at −20 mV, 0 mV, +20 mV, +40 mV, and +60 mV for 100 ms of each step. Whole-cell currents were measured at 0 mV and normalized to current after external buffer addition.

Each structure is given as a SMILES string.

On to `CC(C)(Oc1ccc(Cl)cc1)C(=O)Nc1cnc(Oc2c(F)cccc2F)nc1` [Analog 40], for which the IC50 (usually the concentration at which inhibition is half-maximal) amounted to 410 nM and the Imax was found to be 96%.

The molecule `CN(c1ccc(C#N)cc1)c1ncc(NC(=O)C(C)(C)Oc2ccc(Cl)cc2)cn1` [Analog 66] yielded an IC50 of 1200 nM and an Imax of 84%.
